Results: patent publication US20250304620A1, “ANTIMICROBIAL PEPTIDE AND APPLICATION THEREOF” (priority 2023, published 2025)
Values after ≈ are worked out from the molar mass of the structure shown. Marks after values point to notes of the source that are not given here. Non-standard residues stand in square brackets, D forms with d. Residues, ends and D or L forms follow the SMILES beside them. dPhe(4-Cl) = N[C@H](Cc1ccc(Cl)cc1)C(=O)O; dPhe(4-F) = N[C@H](Cc1ccc(F)cc1)C(=O)O; d2Nal = N[C@H](Cc1ccc2ccccc2c1)C(=O)O; dNva = CCC[C@@H](N)C(=O)O

Key:
rabbit red blood cells = assay type: cell-based; settings: red cells of rabbit, 1 h
[1] = system: Staphylococcus aureus (NRS 384); settings: NRS 384, 3 h
Procedure: Trypsin (250 U/mg, pH=8.0) and AMPs (LV-1 to LV-30) were mixed in a ratio of 1:10 (w/w) and added to a reaction buffer (0.2 M sodium phosphate, 1 mM CaCl2), pH 7.5), and then incubated at 37° C. for 3 h.

[2] = system: Trichophyton ATCC MYA-4438; assay type: cell-based
Summary of the method: (§1)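 Read-out is MIC, from a CLSI-conformant twofold microdilution series, done in quintuplicate in parallel.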

[3] = system: Candida glabrata ATCC 15126; assay type: cell-based
Summary of the method: as §1

Candida krusei ATCC 6258 = assay type: cell-based
Summary of the method: as §1

[4] = system: Corynebacterium ATCC 7715; assay type: cell-based
Summary of the method: as §1

[5] = system: Escherichia coli ATCC 25922; assay: Oral formulations on mice with systemic bacterial infection; assay type: in vivo, ICR mice; settings: three times a day for 7 days; for Number of mice that died on each day after infection: day 4 / Number of mice that died on each day after infection: day 5 / Number of mice that died on each day after infection: day 6 / Number of mice that died on each day after infection: day 7 / Number of mice that died on each day after infection: day 8 / Average survival times (Days): n = 10; for Average survival times (Days): observed for 14 d
Summary of the method: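 Survival time and deaths were logged over a 14 d observation after oral gavage dosing (by body weight, thrice daily, 7 days, starting right after infection). Model: mixed-sex ICR mice, n=10 per group, intraperitoneal injection of E. coli ATCC 25922 suspension (0.2 mL, 1×10^7 CFU/mL).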

[6] = system: Shigella flexneri ATCC 12022; assay: MIC against clinically common bacterial strain; assay type: cell-based
Summary of the method: as §1

[7] = Serum stability assay (residual level by RP-HPLC); settings: human
[8] = system: carbapenem-resistant Pseudomonas aeruginosa (CRPA); assay type: cell-based; settings: carbapenem-resistant (CRPA)
Summary of the method: (§2)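 CLSI twofold serial microdilution; MIC read per drug-resistant clinical strain; n = 5 parallel replicates.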

[9] = system: Methicillin-resistant Staphylococcus aureus (MRSA); assay type: cell-based; settings: Methicillin-resistant
Summary of the method: as §2

[10] = system: carbapenem-resistant Escherichia coli (CREC); assay type: cell-based; settings: carbapenem-resistant (CREC)
Summary of the method: as §2

[11] = system: vancomycin-resistant Enterococcus (VRE); assay type: cell-based
Summary of the method: as §2

[12] = system: carbapenem-resistant Klebsiella pneumoniae (CRKP); assay type: cell-based; settings: carbapenem-resistant (CRKP)
Summary of the method: as §2

[13] = system: Staphylococcus aureus (NRS 384); assay: microbe, parasite or virus in culture; assay type: cell-based; settings: NRS 384
Summary of the method: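 MICs were read against S. aureus strain NRS 384 using twofold serial dilution by CLSI microdilution rules. Levofloxacin and Cbf-K16 were the reference controls, and the test was repeated 5 times in parallel.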

| SMILES | MHC (minimum hemolytic concentration, lowest concentration causing 10% hemolysis) (rabbit red blood cells) | Trypsin MIC [1] | MIC Trichophyton ATCC MYA-4438 [2] | MIC Candida glabrata ATCC 15126 [3] | MIC Candida krusei ATCC 6258 (Candida krusei ATCC 6258) | MIC Corynebacterium ATCC 7715 [4] | Number of mice that died on each day after infection: day 4 ([5]; 1 mg/kg gavage) | Number of mice that died on each day after infection: day 5 ([5]; 1 mg/kg gavage) | Number of mice that died on each day after infection: day 6 ([5]; 1 mg/kg gavage) | Number of mice that died on each day after infection: day 7 ([5]; 1 mg/kg gavage) | Number of mice that died on each day after infection: day 8 ([5]; 1 mg/kg gavage) | Average survival times (Days) ([5]; 1 mg/kg gavage) | MIC Shigella flexneri ATCC 12022 [6] | remaining at 12 h, 0.91 mg/mL [7] | MIC CRPA [8] | MIC MRSA [9] | MIC CREC [10] | MIC VRE [11] | MIC CRKP [12] | MIC against Staphylococcus aureus (NRS 384) [13] | also measured |
| --- | --- | --- | --- | --- | --- | --- | --- | --- | --- | --- | --- | --- | --- | --- | --- | --- | --- | --- | --- | --- | --- |
| CC(=O)N[C@H](CCCNC(=N)N)C(=O)N[C@H](CCCCN)C(=O)N[C@H](CC(C)C)C(=O)N[C@H](CC(C)C)C(=O)N[C@H](Cc1ccc2ccccc2c1)C(=O)N[C@H](CCCNC(=N)N)C(=O)N[C@H](CC(C)C)C(=O)N[C@H](CCCCN)C(=O)N[C@H](Cc1ccccc1)C(=O)N[C@H](CCCNC(=N)N)C(=O)N[C@H](CCCCN)C(N)=O [LV-4] (Ac-[dR][dK][dL][dL][d2Nal][dR][dL][dK][dF][dR][dK]-NH2) | >1000 µg/mL | 1 µg/mL | 8 µg/mL (≈ 5.01 µM) | 8 µg/mL (≈ 5.01 µM) | 16 µg/mL (≈ 10 µM) | 2 µg/mL (≈ 1.25 µM) | 0 Mouse | 1 Mouse | 2 Mouse | 2 Mouse | 1 Mouse | 9.5** Days | 4 µg/mL (≈ 2.51 µM) | 98.7% | 4 µg/mL (≈ 2.51 µM) | 8 µg/mL (≈ 5.01 µM) | 8 µg/mL (≈ 5.01 µM) | 2 µg/mL (≈ 1.25 µM) | 2 µg/mL (≈ 1.25 µM) | 1 µg/mL (≈ 0.627 µM) |  |
| CC(=O)N[C@H](CCCNC(=N)N)C(=O)N[C@H](CCCCN)C(=O)N[C@H](CC(C)C)C(=O)N[C@H](CC(C)C)C(=O)N[C@H](Cc1ccc(F)cc1)C(=O)N[C@H](CCCCN)C(=O)N[C@H](CC(C)C)C(=O)N[C@H](CCCCN)C(=O)N[C@H](Cc1ccc(F)cc1)C(=O)N[C@H](CCCCN)C(=O)N[C@H](CCCNC(=N)N)C(N)=O [LV-5] (Ac-[dR][dK][dL][dL][dPhe(4-F)][dK][dL][dK][dPhe(4-F)][dK][dR]-NH2) | >1000 µg/mL | 1 µg/mL | 4 µg/mL (≈ 2.57 µM) | 16 µg/mL (≈ 10.3 µM) | 4 µg/mL (≈ 2.57 µM) | 4 µg/mL (≈ 2.57 µM) | 1 Mouse | 2 Mouse | 2 Mouse | 1 Mouse | 0 Mouse | 8.9** Days | 2 µg/mL (≈ 1.29 µM) | 98.2% | 4 µg/mL (≈ 2.57 µM) | 4 µg/mL (≈ 2.57 µM) | 8 µg/mL (≈ 5.15 µM) | 8 µg/mL (≈ 5.15 µM) | 4 µg/mL (≈ 2.57 µM) | 1 µg/mL (≈ 0.644 µM) |  |
| CC(=O)N[C@H](CCCNC(=N)N)C(=O)N[C@H](CCCCN)C(=O)N[C@H](CC(C)C)C(=O)N[C@H](CC(C)C)C(=O)N[C@H](Cc1ccc2ccccc2c1)C(=O)N[C@H](CCCCN)C(=O)N[C@H](CC(C)C)C(=O)N[C@H](CCCCN)C(=O)N[C@H](Cc1ccc2ccccc2c1)C(=O)N[C@H](CCCCN)C(=O)N[C@H](CCCNC(=N)N)C(N)=O [LV-18] (Ac-[dR][dK][dL][dL][d2Nal][dK][dL][dK][d2Nal][dK][dR]-NH2) | >1000 µg/mL | 1 µg/mL | 16 µg/mL (≈ 9.89 µM) | 4 µg/mL (≈ 2.47 µM) | 4 µg/mL (≈ 2.47 µM) | 2 µg/mL (≈ 1.24 µM) | 0 Mouse | 1 Mouse | 0 Mouse | 1 Mouse | 0 Mouse | 12.4**** Days | 8 µg/mL (≈ 4.94 µM) | 97.6% | 4 µg/mL (≈ 2.47 µM) | 4 µg/mL (≈ 2.47 µM) | 2 µg/mL (≈ 1.24 µM) | 8 µg/mL (≈ 4.94 µM) | 2 µg/mL (≈ 1.24 µM) | 1 µg/mL (≈ 0.618 µM) | Number of mice that died on each day after infection: day 4 ([5]; 0.2 mg/kg gavage): 0 Mouse; Number of mice that died on each day after infection: day 5 ([5]; 0.2 mg/kg gavage): 1 Mouse; Number of mice that died on each day after infection: day 6 ([5]; 0.2 mg/kg gavage): 2 Mouse; Number of mice that died on each day after infection: day 7 ([5]; 0.2 mg/kg gavage): 1 Mouse; Number of mice that died on each day after infection: day 8 ([5]; 0.2 mg/kg gavage): 0 Mouse; Average survival times (Days) ([5]; 0.2 mg/kg gavage): 10.8*** Days; Number of mice that died on each day after infection: day 4 ([5]; 5 mg/kg gavage): 0 Mouse; Number of mice that died on each day after infection: day 5 ([5]; 5 mg/kg gavage): 1 Mouse; Number of mice that died on each day after infection: day 6 ([5]; 5 mg/kg gavage): 2 Mouse; Number of mice that died on each day after infection: day 7 ([5]; 5 mg/kg gavage): 0 Mouse; Number of mice that died on each day after infection: day 8 ([5]; 5 mg/kg gavage): 0 Mouse; Average survival times (Days) ([5]; 5 mg/kg gavage): 11.5**** Days; survival time of mice infected with Escherichia coli ([5]; gavage, observed 14 d): superior to those of the Levofloxacin group |
| CCC[C@@H](NC(=O)[C@@H](CCCCN)NC(=O)[C@@H](CCCNC(=N)N)NC(C)=O)C(=O)N[C@H](CCC)C(=O)N[C@H](Cc1ccc2ccccc2c1)C(=O)N[C@H](CCCNC(=N)N)C(=O)N[C@H](CCC)C(=O)N[C@H](CCCCN)C(=O)N[C@H](Cc1ccc2ccccc2c1)C(=O)N[C@H](CCCNC(=N)N)C(=O)N[C@H](CCCCN)C(N)=O [LV-13] (Ac-[dR][dK][dNva][dNva][d2Nal][dR][dNva][dK][d2Nal][dR][dK]-NH2) | >1000 µg/mL | 1 µg/mL | 4 µg/mL (≈ 2.49 µM) | 8 µg/mL (≈ 4.99 µM) | 4 µg/mL (≈ 2.49 µM) | 4 µg/mL (≈ 2.49 µM) | 3 Mouse | 1 Mouse | 1 Mouse | 0 Mouse | 0 Mouse | 9.3** Days | 8 µg/mL (≈ 4.99 µM) | 98.5% | 2 µg/mL (≈ 1.25 µM) | 2 µg/mL (≈ 1.25 µM) | 4 µg/mL (≈ 2.49 µM) | 4 µg/mL (≈ 2.49 µM) | 2 µg/mL (≈ 1.25 µM) | 1 µg/mL (≈ 0.623 µM) |  |
| CC(=O)N[C@H](CCCNC(=N)N)C(=O)N[C@H](CCCCN)C(=O)N[C@H](CC(C)C)C(=O)N[C@H](CC(C)C)C(=O)N[C@H](Cc1ccc(Cl)cc1)C(=O)N[C@H](CCCCN)C(=O)N[C@H](CC(C)C)C(=O)N[C@H](CCCCN)C(=O)N[C@H](Cc1ccc(Cl)cc1)C(=O)N[C@H](CCCCN)C(=O)N[C@H](CCCNC(=N)N)C(N)=O [LV-7] (Ac-[dR][dK][dL][dL][dPhe(4-Cl)][dK][dL][dK][dPhe(4-Cl)][dK][dR]-NH2) | >1000 µg/mL | 1 µg/mL | 8 µg/mL (≈ 5.04 µM) | 8 µg/mL (≈ 5.04 µM) | 8 µg/mL (≈ 5.04 µM) | 4 µg/mL (≈ 2.52 µM) | 2 Mouse | 2 Mouse | 0 Mouse | 1 Mouse | 1 Mouse | 8.9** Days | 4 µg/mL (≈ 2.52 µM) | 98.9% | 2 µg/mL (≈ 1.26 µM) | 2 µg/mL (≈ 1.26 µM) | 8 µg/mL (≈ 5.04 µM) | 4 µg/mL (≈ 2.52 µM) | 4 µg/mL (≈ 2.52 µM) | 1 µg/mL (≈ 0.63 µM) |  |
